Key:
Carboplatin = compound: C1CC(C1)(C(=O)[O-])C(=O)[O-].N.N.[Pt+2] [Carboplatin]; conditions: max 10 µM
Procedure, shortened: (§1)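 Cancer cell lines were seeded in 1536-well plates in 7.5 μl DMEM/F12 or RPMI with 10% FBS, held 24 hours at 37°C and 5% CO2, then dosed for 72 hours (final DMSO typically 0.2%). Viability was read by CellTiter-Glo 2.0 luminescence and scaled between blank-well and DMSO-well means. The single-agent IC50 comes from dose responses fitted to a two-parameter logistic curve with a non-linear mixed effects model.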

AZD5363 = compound: C1CN(CCC1(C(=O)N[C@@H](CCO)C2=CC=C(C=C2)Cl)N)C3=NC=NC4=C3C=CN4 [AZD5363]; conditions: max 10 µM
Procedure, shortened: as §1

AZD1775 = compound: C=CCn1c(=O)c2cnc(Nc3ccc(N4CCN(C)CC4)cc3)nc2n1-c1cccc(C(C)(C)O)n1 [AZD1775]; conditions: max 3 µM
Procedure, shortened: as §1

Trametinib = compound: CC(=O)Nc1cccc(-n2c(=O)n(C3CC3)c(=O)c3c(Nc4ccc(I)cc4F)n(C)c(=O)c(C)c32)c1 [Trametinib]; conditions: max 1 µM
Procedure, shortened: as §1

Paclitaxel = compound: CC(=O)O[C@H]1C(=O)[C@@]2(C)[C@H]([C@H](OC(=O)c3ccccc3)[C@]3(O)C[C@H](OC(=O)[C@H](O)[C@@H](NC(=O)c4ccccc4)c4ccccc4)C(C)=C1C3(C)C)[C@]1(OC(C)=O)CO[C@@H]1C[C@@H]2O [Paclitaxel]; conditions: max 3 µM
Procedure, shortened: as §1

Palbociclib = compound: CC(=O)c1c(C)c2cnc(Nc3ccc(N4CCNCC4)cn3)nc2n(C2CCCC2)c1=O [Palbociclib]; conditions: max 10 µM
Procedure, shortened: as §1

AZD1390 = compound: CC(C)n1c(=O)n(C)c2cnc3cc(F)c(-c4ccc(OCCCN5CCCCC5)nc4)cc3c21 [AZD1390]; conditions: max 0.3 µM
Procedure, shortened: as §1

Venetoclax = compound: CC1(C)CCC(CN2CCN(c3ccc(C(=O)NS(=O)(=O)c4ccc(NCC5CCOCC5)c([N+](=O)[O-])c4)c(Oc4cnc5[nH]ccc5c4)c3)CC2)=C(c2ccc(Cl)cc2)C1 [Venetoclax]; conditions: max 1 µM
Procedure, shortened: as §1

Dasatinib = compound: CC1=C(C(=CC=C1)Cl)NC(=O)C2=CN=C(S2)NC3=CC(=NC(=N3)C)N4CCN(CC4)CCO [Dasatinib]; conditions: max 2 µM
Procedure, shortened: as §1

SG3199 = compound: CC1=CN2[C@@H](C1)C=NC3=CC(=C(C=C3C2=O)OC)OCCCCCOC4=C(C=C5C(=C4)N=C[C@@H]6CC(=CN6C5=O)C)OC [SG3199]; conditions: max 0.001 µM
Procedure, shortened: as §1

AZD2811 = compound: CCN(CCO)CCCOc1ccc2c(Nc3cc(CC(=O)Nc4cccc(F)c4)[nH]n3)ncnc2c1 [AZD2811]; conditions: max 1 µM
Procedure, shortened: as §1

SN-38 = compound: CCc1c2c(nc3ccc(O)cc13)-c1cc3c(c(=O)n1C2)COC(=O)[C@]3(O)CC [SN-38]; conditions: max 0.3 µM
Procedure, shortened: as §1

AZD0156 = compound: CN(C)CCCOc1ccc(-c2ccc3ncc4c(c3c2)n(C2CCOCC2)c(=O)n4C)cn1 [AZD0156]; conditions: max 3 µM
Procedure, shortened: as §1

AZD4320 = compound: CN(CC[C@H](CSC1=CC=CC=C1)NC2=C(C=C(C=C2)S(=O)(=O)NC(=O)C3=CC=C(C=C3)N4CCC(CC4)[C@H](C5=CC=CC=C5C6=CC=C(C=C6)Cl)O)S(=O)(=O)C(F)(F)F)CCO [AZD4320]; conditions: max 1 µM
Procedure, shortened: as §1

Alisertib = compound: COc1cc(Nc2ncc3c(n2)-c2ccc(Cl)cc2C(c2c(F)cccc2OC)=NC3)ccc1C(=O)O [Alisertib]; conditions: max 10 µM
Procedure, shortened: as §1

Etoposide = compound: COc1cc([C@@H]2c3cc4c(cc3[C@@H](O[C@@H]3O[C@@H]5CO[C@@H](C)O[C@H]5[C@H](O)[C@H]3O)[C@H]3COC(=O)[C@H]23)OCO4)cc(OC)c1O [Etoposide]; conditions: max 10 µM
Procedure, shortened: as §1

Gefitinib = compound: COc1cc2ncnc(Nc3ccc(F)c(Cl)c3)c2cc1OCCCN1CCOCC1 [Gefitinib]; conditions: max 10 µM
Procedure, shortened: as §1

Prexasertib = compound: COc1cccc(OCCCN)c1-c1cc(Nc2cnc(C#N)cn2)n[nH]1 [Prexasertib]; conditions: max 1 µM
Procedure, shortened: as §1

Doxorubicin = compound: COc1cccc2c1C(=O)c1c(O)c3c(c(O)c1C2=O)C[C@@](O)(C(=O)CO)C[C@@H]3O[C@H]1C[C@H](N)[C@H](O)[C@H](C)O1 [Doxorubicin]; conditions: max 1 µM
Procedure, shortened: as §1

AZD5153 = compound: COc1nnc2ccc(N3CCC(c4ccc(OCCN5CCN(C)C(=O)[C@H]5C)cc4)CC3)nn12 [AZD5153]; conditions: max 1 µM
Procedure, shortened: as §1

Lapatinib = compound: CS(=O)(=O)CCNCc1ccc(-c2ccc3ncnc(Nc4ccc(OCc5cccc(F)c5)c(Cl)c4)c3c2)o1 [Lapatinib]; conditions: max 10 µM
Procedure, shortened: as §1

AZD8186 = compound: C[C@@H](Nc1cc(F)cc(F)c1)c1cc(C(=O)N(C)C)cc2c(=O)cc(N3CCOCC3)oc12 [AZD8186]; conditions: max 10 µM
Procedure, shortened: as §1

Crizotinib = compound: C[C@@H](Oc1cc(-c2cnn(C3CCNCC3)c2)cnc1N)c1c(Cl)ccc(F)c1Cl [Crizotinib]; conditions: max 10 µM
Procedure, shortened: as §1

Savolitinib = compound: C[C@@H](c1ccc2nccn2c1)n1nnc2ncc(-c3cnn(C)c3)nc21 [Savolitinib]; conditions: max 1 µM
Procedure, shortened: as §1

AZD6738 = compound: C[C@@H]1COCCN1C2=NC(=NC(=C2)C3(CC3)[S@](=N)(=O)C)C4=C5C=CNC5=NC=C4 [AZD6738]; conditions: max 10 µM
Procedure, shortened: as §1

AZD5991 = compound: Cc1c2c(nn1C)CSCc1cc(n(C)n1)CSc1cc(c3ccccc3c1)OCCCc1c(C(=O)O)n(C)c3c-2c(Cl)ccc13 [AZD5991]; conditions: max 1 µM
Procedure, shortened: as §1

AZD7648 = compound: Cc1cc2ncnn2cc1Nc1ncc2c(n1)n(C1CCOCC1)c(=O)n2C [AZD7648]; conditions: max 10 µM
Procedure, shortened: as §1

Taselisib = compound: Cc1nc(-c2cn3c(n2)-c2ccc(-c4cnn(C(C)(C)C(N)=O)c4)cc2OCC3)n(C(C)C)n1 [Taselisib]; conditions: max 10 µM
Procedure, shortened: as §1

Selumetinib = compound: Cn1cnc2c(F)c(Nc3ccc(Br)cc3Cl)c(C(=O)NOCCO)cc21 [Selumetinib]; conditions: max 10 µM
Procedure, shortened: as §1

SRA737 = compound: N#Cc1cnc(Nc2cc(NC[C@H]3CNCCO3)c(C(F)(F)F)cn2)cn1 [SRA737]; conditions: max 10 µM
Procedure, shortened: as §1

MK-2206 = compound: NC1(c2ccc(-c3nc4ccn5c(=O)[nH]nc5c4cc3-c3ccccc3)cc2)CCC1 [MK-2206]; conditions: max 10 µM
Procedure, shortened: as §1

Gemcitabine = compound: Nc1ccn([C@@H]2O[C@H](CO)[C@@H](O)C2(F)F)c(=O)n1 [Gemcitabine]; conditions: max 0.3 µM
Procedure, shortened: as §1

[1] = compound: O=C(Nc1ccc2[nH]nc(-c3ccncc3)c2c1)[C@@H]1CCN(CC(=O)N2CCN(c3ccc(-c4ncccn4)cc3)CC2)C1; conditions: max 5 µM
Procedure, shortened: as §1

Olaparib = compound: O=C(c1cc(Cc2n[nH]c(=O)c3ccccc23)ccc1F)N1CCN(C(=O)C2CC2)CC1 [Olaparib]; conditions: max 10 µM
Procedure, shortened: as §1

5-Fluorouracil = compound: O=c1[nH]cc(F)c(=O)[nH]1 [5-Fluorouracil]; conditions: max 20 µM
Procedure, shortened: as §1

Cell Line | IC50, cell viability 72 h (Carboplatin) | IC50, cell viability 72 h (AZD5363) | IC50, cell viability 72 h (AZD1775) | IC50, cell viability 72 h (Trametinib) | IC50, cell viability 72 h (Paclitaxel) | IC50, cell viability 72 h (Palbociclib) | IC50, cell viability 72 h (AZD1390) | IC50, cell viability 72 h (Venetoclax) | IC50, cell viability 72 h (Dasatinib) | IC50, cell viability 72 h (SG3199) | IC50, cell viability 72 h (AZD2811) | IC50, cell viability 72 h (SN-38) | IC50, cell viability 72 h (AZD0156) | IC50, cell viability 72 h (AZD4320) | IC50, cell viability 72 h (Alisertib) | IC50, cell viability 72 h (Etoposide) | IC50, cell viability 72 h (Gefitinib) | IC50, cell viability 72 h (Prexasertib) | IC50, cell viability 72 h (Doxorubicin) | IC50, cell viability 72 h (AZD5153) | IC50, cell viability 72 h (Lapatinib) | IC50, cell viability 72 h (AZD8186) | IC50, cell viability 72 h (Crizotinib) | IC50, cell viability 72 h (Savolitinib) | IC50, cell viability 72 h (AZD6738) | IC50, cell viability 72 h (AZD5991) | IC50, cell viability 72 h (AZD7648) | IC50, cell viability 72 h (Taselisib) | IC50, cell viability 72 h (Selumetinib) | IC50, cell viability 72 h (SRA737) | IC50, cell viability 72 h (MK-2206) | IC50, cell viability 72 h (Gemcitabine) | IC50, cell viability 72 h [1] | IC50, cell viability 72 h (Olaparib) | IC50, cell viability 72 h (5-Fluorouracil)
SF539 (Glioblastoma) | > 10000 nM | 3270 nM | 185 nM | > 1000 nM | 7.53 nM | > 10000 nM | > 300 nM | > 1000 nM | 1630 nM | > 1 nM | > 1000 nM | 18.9 nM | > 3000 nM | > 1000 nM | 4930 nM | 2140 nM | > 10000 nM | 8.82 nM | 351 nM | 370 nM | > 10000 nM | > 10000 nM | 9820 nM | > 1000 nM | 2050 nM | > 1000 nM | > 10000 nM | 3750 nM | > 10000 nM | 1930 nM | 9370 nM | 23.9 nM | 3220 nM | > 10000 nM | 14500 nM
SHP-77 (Small Cell Lung Carcinoma) | > 10000 nM | > 10000 nM | 1800 nM | > 1000 nM | 76.3 nM | > 10000 nM | > 300 nM | > 1000 nM | > 2000 nM | > 1 nM | > 1000 nM | > 300 nM | > 3000 nM | > 1000 nM | > 10000 nM | > 10000 nM | > 10000 nM | 102 nM | > 1000 nM | > 1000 nM | > 10000 nM | > 10000 nM | > 10000 nM | > 1000 nM | > 10000 nM | > 1000 nM | > 10000 nM | > 10000 nM | > 10000 nM | > 10000 nM | > 10000 nM | 169 nM | > 5000 nM | > 10000 nM | 14800 nM

— the supplement of paper PMC11061612
